Assay results published in patent US9000034B2, “Antibiotic composition containing erythorbyl laurate and its usage” (SNU R&DB Foundation, priority 2012, dated 2015).

Legend:
[1] = tested on: Salmonella typhimurium (ATCC 19586); test: Test for bacterial proliferation inhibitory effects (absorbance at 600 nm); settings: 37° C., 22 hours; FIG. 5
[2] = tested on: Escherichia coli O157:H7 (ATCC 35150); test: as above; format: cell-based; settings: 37° C., 22 hours; FIG. 5
[3] = tested on: Staphylococcus aureus; test: as above; format: cell-based
Description: Meanwhile, as a result of examination of proliferation inhibition data of Staphylococcus aureus, a portion where an exponential phase of the bacteria starts was remarkably shown unlike Listeria monocytogenes. Thus, the concentration of erythorbyl laurate was further decreased and a growth curve of the bacteria was measured.

[4] = tested on: human intestinal epithelial cells INT-407
[5] = tested on: Listeria monocytogenes (ATCC 19114); test: Test for apoptotic effects (viable colony count on selective media); format: cell-based
Description: (§1) Apoptotic effects of erythorbic acid, lauric acid, and erythorbyl laurate, which is a […] product of erythorbic acid and lauric acid and a material of interest in this experiment, on two kinds of Gram-negative bacteria and two kinds of Gram-positive bacteria were evaluated.
(§2) As selective media for antibiosis test, sorbitol MacConkey agar (SMAC) (available from Difco), Xylose Lysine Desoxycholate agar (XLD) (available from Difco), Oxford agar base with Bacto™ Oxford antimicrobial supplement (MOX) (available from Difco), and Baird-Parker Agar Base (BPA) (available from Difco) were used.
(§3) As bacterial strains, Escherichia coli O157:H7 (ATCC 35150), Salmonella typhimurium (ATCC 19586), Listeria monocytogenes (ATCC 19114), and Staphylococcus aureus (ATCC 27213) were prepared. Each of the bacterial strains was cultured in tryptic soy broth (Difco, Becton Dickinson, Sparks, Md., USA) for 24 hours at 37° C., centrifuged at 4000×g for 20 minutes at 4° C., and purified with buffered peptone water (BPW) (available from Difco). Each strain was prepared in the form of a bacterial suspension (10^6 CFU/ml).
(§4) For this experiment, first, 10 ml of erythorbic acid, 10 ml of lauric acid, and 10 ml of erythorbyl laurate were added to 0.1 ml of each bacterial suspension. The resulting solution was satisfactorily mixed using a vortex mixer for minutes. Thereafter, 1 ml of the resultant solution obtained by mixing each bacterial suspension and test compounds was mixed with 9 ml of sterilized peptone water. Then, the resulting mixture was diluted 1:10 using sterilized peptone water. 0.1 ml of the diluted solution was collected and plated on the selective media. The plated media were incubated at 37° C. for 24 hours, and then colonies grown in each plate were measured in log10 CFU/ml.

[6] = tested on: Escherichia coli O157:H7 (ATCC 35150); test: as above; format: cell-based; settings: compared with erythorbic acid and lauric acid; FIG. 4
Description: as §1, §2, §3, §4

[7] = tested on: Staphylococcus aureus (ATCC 27213); test: as above; format: cell-based
Description: as §1, §2, §3, §4

[8] = tested on: Salmonella typhimurium (ATCC 19586); test: as above; format: cell-based; settings: compared with erythorbic acid and lauric acid; FIG. 4
Description: as §1, §2, §3, §4

[9] = tested on: Listeria monocytogenes; test: Test for bacterial proliferation inhibitory effects (absorbance at 600 nm); settings: 37° C., 22 hours; FIG. 5
[10] = tested on: human intestinal epithelial cells INT-407; test: Cytotoxicity test (MTT assay, cell viability); settings: FIG. 7

SMILES | bacterial proliferation inhibitory effects [1] | bacterial proliferation inhibitory effects [2] | bacterial proliferation inhibitory effects ([3]; 37° C., 22 hours, FIG. 5) | growth curve of the bacteria as the concentration decreased ([3]; decreasing concentration of erythorbyl laurate, FIG. 6) | cytotoxicity [4] | apoptotic effects ([5]; FIG. 4) | viable cell count ([5]; above concentrations of 200 ppm) [CFU/ml] | apoptotic effects according to the concentration ([5]; up to 200 ppm) | apoptotic effects [6] | apoptotic effects ([7]; FIG. 4) | apoptotic effects according to the concentration ([7]; at a concentration of 200 ppm or higher) | apoptotic effects [8] | bacterial proliferation inhibitory effects [9] | cell viability compared with erythorbic acid ([10]; 50 μM and 200 μM) | cell viability compared with ascorbyl palmitate ([10]; all the concentrations)
O=C1O[C@H]([C@H](O)CO)C(O)=C1O [erythorbic acid] | insignificant bacterial proliferation inhibitory effects | insignificant bacterial proliferation inhibitory effects | – | – | – | – | – | – | – | – | – | – | – | – | –
CCCCCCCCCCCC(=O)OC[C@@H](O)[C@H]1OC(=O)C(O)=C1O [erythorbyl laurate] | insignificant bacterial proliferation inhibitory effects | insignificant bacterial proliferation inhibitory effects | effective bacterial proliferation inhibitory effects | an induction phase decreased and the exponential phase was observed earlier | no cytotoxicity | excellent apoptotic effects | 0.48 | apoptotic effects were increased in proportion to increase in the concentration | insignificant | excellent apoptotic effects | continuous apoptotic effects | insignificant | effective bacterial proliferation inhibitory effects | cell viability similar to that when erythorbic acid was used | higher cell viability
CCCCCCCCCCCC(=O)O [lauric acid] | insignificant bacterial proliferation inhibitory effects | insignificant bacterial proliferation inhibitory effects | – | – | – | – | – | – | – | – | – | – | – | – | –
